# Assay results published in the supplement of paper PMC11451515.
# Tested on: NOMO1
# Experiment: cell viability relative to DMSO control; higher = less cytotoxic
# Conditions: 48 h
# How it was run: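 In 1536-well plates, 5 μl of leukemia cells were seeded per well: 500 cells/well for NOMO1 or SEM and 1000 cells/well for P12-Ichikawa. Each line had first been adapted for at least four passages in each medium. Library compounds in DMSO were pin-dosed at 11 threefold concentrations between 47 μM and 0.79 nM, and CellTiter-Glo One luminescence was read after 48 h at 37°C. Viability is a per-plate percentage relative to DMSO wells, with cell-free wells as background.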
# [1] = HPLM + 10% dialyzed FBS, 0.000781 µM
# [2] = HPLM + 10% dialyzed FBS, 0.00234 µM
# [3] = HPLM + 10% dialyzed FBS, 0.00702 µM
# [4] = HPLM + 10% dialyzed FBS, 0.0211 µM
# [5] = HPLM + 10% dialyzed FBS, 0.0632 µM
# [6] = HPLM + 10% dialyzed FBS, 0.19 µM
# [7] = HPLM + 10% dialyzed FBS, 0.569 µM
# [8] = HPLM + 10% dialyzed FBS, 1.71 µM
# [9] = HPLM + 10% dialyzed FBS, 5.12 µM
# [10] = HPLM + 10% dialyzed FBS, 15.4 µM
# [11] = HPLM + 10% dialyzed FBS, 46.1 µM
# [12] = RPMI 5 mM glucose + 10% FBS, 0.000781 µM
# [13] = RPMI 5 mM glucose + 10% FBS, 0.00234 µM
# [14] = RPMI 5 mM glucose + 10% FBS, 0.00702 µM
# [15] = RPMI 5 mM glucose + 10% FBS, 0.0211 µM
# [16] = RPMI 5 mM glucose + 10% FBS, 0.0632 µM
# [17] = RPMI 5 mM glucose + 10% FBS, 0.19 µM
# [18] = RPMI 5 mM glucose + 10% FBS, 0.569 µM
# [19] = RPMI 5 mM glucose + 10% FBS, 1.71 µM
# [20] = RPMI 5 mM glucose + 10% FBS, 5.12 µM
# [21] = RPMI 5 mM glucose + 10% FBS, 15.4 µM
# [22] = RPMI 5 mM glucose + 10% FBS, 46.1 µM
# [23] = RPMI 5 mM glucose + 10% dialyzed FBS, 0.000781 µM
# [24] = RPMI 5 mM glucose + 10% dialyzed FBS, 0.00234 µM
# [25] = RPMI 5 mM glucose + 10% dialyzed FBS, 0.00702 µM
# [26] = RPMI 5 mM glucose + 10% dialyzed FBS, 0.0211 µM
# [27] = RPMI 5 mM glucose + 10% dialyzed FBS, 0.0632 µM
# [28] = RPMI 5 mM glucose + 10% dialyzed FBS, 0.19 µM
# [29] = RPMI 5 mM glucose + 10% dialyzed FBS, 0.569 µM
# [30] = RPMI 5 mM glucose + 10% dialyzed FBS, 1.71 µM
# [31] = RPMI 5 mM glucose + 10% dialyzed FBS, 5.12 µM
# [32] = RPMI 5 mM glucose + 10% dialyzed FBS, 15.4 µM
# [33] = RPMI 5 mM glucose + 10% dialyzed FBS, 46.1 µM
Compound,cell viability [1],cell viability [2],cell viability [3],cell viability [4],cell viability [5],cell viability [6],cell viability [7],cell viability [8],cell viability [9],cell viability [10],cell viability [11],cell viability [12],cell viability [13],cell viability [14],cell viability [15],cell viability [16],cell viability [17],cell viability [18],cell viability [19],cell viability [20],cell viability [21],cell viability [22],cell viability [23],cell viability [24],cell viability [25],cell viability [26],cell viability [27],cell viability [28],cell viability [29],cell viability [30],cell viability [31],cell viability [32],cell viability [33]
COC(=O)C1C2CC3c4[nH]c5cc(OC)ccc5c4CCN3CC2CC(OC(=O)c2cc(OC)c(OC)c(OC)c2)C1OC (stereo unspecified),108%,123%,101%,125%,119%,112%,115%,106%,112%,102%,81.3%,106%,94.6%,107%,103%,95.2%,104%,93.4%,94.1%,96.4%,95.7%,90.2%,105%,101%,103%,93.8%,92.1%,98.2%,98.5%,105%,102%,112%,82.9%
CCCCCCCCCC(=O)N[C@@H](Cc1c[nH]c2ccccc12)C(=O)N[C@H](CC(N)=O)C(=O)N[C@@H](CC(=O)O)C(=O)N[C@@H]1C(=O)NCC(=O)N[C@@H](CCCN)C(=O)N[C@@H](CC(=O)O)C(=O)N[C@H](C)C(=O)N[C@@H](CC(=O)O)C(=O)NCC(=O)N[C@H](CO)C(=O)N[C@@H]([C@@H](C)CC(=O)O)C(=O)N[C@@H](CC(=O)c2ccccc2N)C(=O)O[C@@H]1C,105%,118%,118%,132%,108%,123%,119%,133%,149%,106%,114%,98.9%,112%,102%,122%,111%,104%,121%,124%,108%,117%,111%,103%,116%,103%,111%,125%,106%,141%,131%,102%,118%,80.3%
C[S+](=O)([O-])c1cccc(CNc2nc(Nc3ccc4c(c3)CCC(=O)N4)ncc2C(F)(F)F)c1,,,,,,,,,,,,99.6%,113%,116%,115%,108%,114%,113%,100%,93.3%,91.6%,53.9%,107%,109%,114%,129%,99.9%,115%,105%,111%,108%,86.1%,58.9%
O=C(Nc1ncc(-c2cc(C(F)F)nn2-c2c(Cl)cccc2Cl)s1)C1CC1,120%,107%,120%,117%,132%,138%,137%,99.1%,44.4%,62.8%,49%,,,,,,,,,,,,,,,,,,,,,,
CC(C)c1cc(C(=O)N2Cc3ccc(CN4CCN(C)CC4)cc3C2)c(O)cc1O,125%,118%,109%,108%,126%,128%,70.8%,24%,20.3%,19.5%,19.9%,97.1%,107%,105%,110%,105%,117%,62.2%,21.3%,15.9%,17.5%,14.8%,119%,120%,111%,117%,119%,127%,71.7%,33.9%,20.5%,20.1%,17.6%
CC(C)c1ccc(Cn2ccc3c4c(N)nc(NC5CC5)nc4ccc32)cc1,116%,114%,116%,101%,126%,123%,70.2%,53.1%,38.8%,39.3%,4.39%,121%,116%,125%,120%,120%,130%,123%,113%,100%,30.9%,4.9%,110%,109%,104%,107%,133%,124%,128%,84.7%,50.3%,49.8%,3.66%
Nc1nc(N)c2nc(-c3cccc(O)c3)c(-c3cccc(O)c3)nc2n1,124%,135%,110%,128%,116%,126%,123%,108%,79.6%,47.8%,17%,106%,115%,102%,116%,112%,117%,105%,111%,91.6%,90.6%,4.68%,119%,106%,107%,112%,114%,110%,105%,108%,96.7%,78.5%,42.2%
CNC[C@H](O)c1cccc(O)c1,92.9%,92.1%,98.8%,36.8%,111%,103%,109%,110%,99%,113%,122%,78.1%,86.8%,94.7%,26.9%,93%,89.4%,90.6%,92.8%,88.6%,102%,99%,78.3%,88.4%,98.3%,32.9%,98%,102%,101%,87.7%,82.3%,91.1%,103%
